Consider 17 molecules from patent publication US7288552B2, “Piperidine derivatives, process for preparation thereof, and pharmaceutical composition for alzheimer's disease containing the same” (STC NARA Co., Ltd., priority 2001, dated 2007).

By IC50 is commonly meant the point on the concentration scale where inhibition reaches its midpoint.

Each structure is given as a SMILES string. Some results are limits rather than exact numbers.

In one data set the test system is ICR mice. Description: Acute toxicity test on animals. The format is in vivo. To be noted: 50 mg/kg to 500 mg/kg intraperitoneal, single injection, observed for 10 days. The procedure: In order for a compound to be comprised in the pharmaceutical composition for treating Alzheimer's disease, it must be nontoxic. […] This test followed the protocol of Korea Food & Drug Administration. […] The compounds used for the test were diluted with wheat germ oil.

Data set [1] has as its system patients with Alzheimer's disease. The following applies: cited from earlier work.
Data set [2] concerns the target T1, acetylcholinesterase (Type V-S: from electric eel) (Electrophorus electricus, UniProt O42275).
T1 construct: purchased Sigma Chemical Co., U.S.A. Type V-S
Kind of data set: Measurement of acetylcholinesterase activity (modified Ellman's method). The format is biochemical. To be noted: 0.03 U enzyme, 37° C., 412 nm; read-out: AChE Inhibition (IC50). An excerpt:
Experiment for Measuring Acetylcholinesterase Inhibition Effect
The compounds used for measuring acetylcholinesterase (AChE) activity such as acetylcholinesterase (Type V-S: from electric eel), acetylcholine iodide, 5,5-dithio-bis(2-nitro benzoic acid), and neostigmine bromide, were products of Sigma Chemical Co., U.S.A., and high purity reagents were selected for other reagents.
3. Measurement of Acetylcholinesterase Activity
Modified Ellman's method for measuring enzyme activity was used to meet with the measurement of acetylcholinesterase activity. The enzyme was separated into certain amount, and kept under 80° C. below zero. The final concentration of the enzyme used in the experiment was 0.03 unit concentration. 1000 μM of […] dissolved in 0.1 M sodium phosphate buffer (pH 8.0) was used for substrate. As for dye reagent, 5,5-dithio-bis-(2-nitrobenzoic acid) (39.6 mg) and sodium bicarbonate(15 mg) dissolved in 10 mL sodium phosphate buffer (0.1M, pH 7.0) was used.
The procedure for the enzyme reaction was as follows. After adding 200 μl DTNB and 100 μl enzyme (0.03 U) to 2 mL sodium phosphate buffer (pH 8.0), the resulting mixture was pre-heated at 37° C. for 10 minutes. To the resulting mixture 200 μl substrate was added, and allowed to react for 3 minutes. The spectrometer of finished reaction was measured at 412 nm wave. IC50 value connected to activity inhibition was measured by quantal-dose response.

A further data set has as its target T2, β-amyloid (1-42) (Homo sapiens, UniProt P05067).
T2 construct: β-amyloid (1-42) was a product of American Peptide Co., U.S.A; purchased American Peptide Co., U.S.A
Description: Inhibition of β-amyloid (1-42) aggregation (thioflavin T fluorescence). In kind it is biochemical. To be noted: 5 μM β-amyloid 1-42, 37° C., 26 hours. An excerpt: Experiment for Measuring Inhibition of β-amyloid Aggregation
As the materials used for measuring β-amyloid aggregation, β-amyloid (1-42) was a product of American Peptide Co., U.S.A.; and thioflavin T, phosphate buffered saline tablets, and dimethyl sulfoxide (DMSO, 99.5%) were products of Sigma Chemical Co., U.S.A., and high purity reagents were selected for other reagents.
3. Experiment for Measuring Inhibition of β-amyloid (1-42) Aggregation
Fluorescent analysis was used in measuring β-amyloid aggregation. This peptide compound was kept in the deep freezer (−80° C.), and the final concentration used in the mesurement was 5 μM. Compounds that need to be analyzed were dissolved in 99.5% DMSO, and fluorescent substance was prepared by dissolving thioflavin T (5 μM) in 0.01 M sodium phosphate buffer.
The procedure for aggregation reaction was as follows. To 0.01 M sodium phosphate buffer (92.5 μl) was added fixed concentration of a compound, for measuring purpose, (5 μl) and 5 μM β-amyloid 1-42 (2.5 μl). The resulting mixture was kept at 37° C. for 26 hours to aggregate. 5 μM tioflavin T (2000 μl) was added thereto, and then fluorescent strength was measured with fluorescent spectrometer.

T1 sequence (O42275 24-633): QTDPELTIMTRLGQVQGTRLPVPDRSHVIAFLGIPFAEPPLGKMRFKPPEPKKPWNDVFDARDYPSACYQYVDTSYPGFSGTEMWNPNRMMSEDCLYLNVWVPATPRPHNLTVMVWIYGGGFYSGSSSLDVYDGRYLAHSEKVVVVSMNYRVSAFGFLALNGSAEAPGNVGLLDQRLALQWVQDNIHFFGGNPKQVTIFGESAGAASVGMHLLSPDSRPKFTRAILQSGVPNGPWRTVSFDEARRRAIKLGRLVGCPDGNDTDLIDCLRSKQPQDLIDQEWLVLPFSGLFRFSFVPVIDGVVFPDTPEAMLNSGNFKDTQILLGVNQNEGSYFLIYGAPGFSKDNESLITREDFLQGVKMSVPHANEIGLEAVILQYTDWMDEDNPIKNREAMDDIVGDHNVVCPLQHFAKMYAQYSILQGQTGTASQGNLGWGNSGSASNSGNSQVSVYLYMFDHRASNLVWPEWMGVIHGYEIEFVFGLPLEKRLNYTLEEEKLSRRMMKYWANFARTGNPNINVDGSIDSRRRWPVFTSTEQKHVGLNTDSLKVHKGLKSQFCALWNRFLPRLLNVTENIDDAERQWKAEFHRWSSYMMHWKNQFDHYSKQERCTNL
T2 sequence (P05067 672-713 limits assumed): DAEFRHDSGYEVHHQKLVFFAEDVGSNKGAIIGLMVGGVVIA

Regarding `CC(C)(C)c1ccc(C(=O)OCCCCN2CCC(OC(c3ccccc3)c3ccccc3)CC2)cc1` [Example 6, 4-[4-(benzhydryloxy)piperidino]butyl 4-(tert-butyl)benzoate], the death rate entry with ICR mice was “no death”. Regarding `Nc1c2c(nc3ccccc13)CCCC2` [Tarcrine], the “share of patients with Alzheimer's disease in whom efficacious” value in data set [1] was “about 25%”.

Take `O=C(OCCCCN1CCC(OCc2ccccc2)CC1)c1ccccc1` [Example 15, 4-[4-(benzyloxy)piperidino]butyl benzoate]: in data set [2], the IC50 is over 100 µM.

With `O=C(OCCCCN1CCC(OCc2ccccc2)CC1)c1ccc(Cl)cc1` [Example 13, 4-[4-(benzyloxy)piperidino]butyl 4-chlorobenzoate], the IC50 in data set [2] was over 100 µM.

`O=C(OCCCCN1CCC(OC(c2ccccc2)c2ccccc2)CC1)c1ccc(F)cc1` [Example 3, 4-[4-(benzhydryloxy)piperidino]butyl 4-fluorobenzoate]: the IC50 in data set [2] turned out to be 0.84 µM; at β-amyloid (1-42) it was 36.3 µM. For `O=C(Nc1ccc(F)cc1)OCCCCN1CCC(OC(c2ccccc2)c2ccccc2)CC1` [Example 10, 4-[4-(benzhydryloxy)piperidino]butyl N-(4-fluorophenyl)carbamate] the same measures were 2.45 µM and 114 µM. For the molecule `O=C(OCCCCN1CCC(OCc2ccccc2)CC1)c1ccc(F)cc1` [Example 14, 4-[4-(benzyloxy)piperidino]butyl 4-fluorobenzoate], the 50% inhibitory concentration (IC50) in data set [2] was over 100 µM. As to `O=C(OCCCCN1CCC(OC(c2ccccc2)c2ccccc2)CC1)c1ccccc1` [Example 4, 4-[4-(benzhydryloxy)piperidino]butyl benzoate], the IC50 in data set [2] was 1.3 µM; at β-amyloid (1-42) it was 40.3 µM.

Take `O=C(OCCCCN1CCC(OCc2ccccc2)CC1)c1cccc(Cl)c1` [Example 18, 4-[4-(benzyloxy)piperidino]butyl 3-chlorobenzoate]: in data set [2], the IC50 was over 100 µM. Regarding `O=C(OCCCCN1CCC(OC(c2ccccc2)c2ccccc2)CC1)c1ccc([N+](=O)[O-])cc1` [Example 1, 4-[4-(benzhydryloxy)piperidino]butyl-4-nitrobenzoate], the half-maximal inhibitory concentration (IC50) turned out to be 7.2 µM in data set [2] and 53.1 µM at β-amyloid (1-42).

For `O=C(OCCCCN1CCC(OC(c2ccccc2)c2ccccc2)CC1)c1cccnc1` [Example 11, 4-[4-(benzhydryloxy)piperidino]butyl nitcotinate], the values for the IC50 (in data set [2]; on β-amyloid (1-42)) were over 150 µM and 61.2 µM, respectively. Consider `CC(C)c1ccc(C(=O)OCCCCN2CCC(OCc3ccccc3)CC2)cc1` [Example 16, 4-[4-(benzyloxy)piperidino]butyl 4-isopropylbenzoate], for which the 50% inhibitory concentration (IC50) in data set [2] is 14.8 µM.

For `O=C(OCCCCN1CCC(OCc2ccccc2)CC1)c1ccc([N+](=O)[O-])cc1` [Example 12, 4-[4-(benzyloxy)piperidino]butyl 4-nitrobenzoate], in data set [2], the IC50 is over 100 µM.

Consider `O=C(OCCCCN1CCC(OCc2ccccc2)CC1)c1cccc(F)c1` [Example 19, 4-[4-(benzyloxy)piperidino]butyl 3-fluorobenzoate], for which the IC50 in data set [2] was over 100 µM.

In the case of `O=C(OCCCCN1CCC(OC(c2ccccc2)c2ccccc2)CC1)c1cccc(F)c1` [Example 8, 4-[4-(benzhydryloxy)piperidino]butyl 3-fluorobenzoate], the IC50 in data set [2] was 70.7 µM; on β-amyloid (1-42), 33.7 µM.

`O=C(OCCCCN1CCC(OC(c2ccccc2)c2ccccc2)CC1)c1ccc(Cl)cc1` [Example 2, 4-[4-(benzhydryloxy)piperidino]butyl-4-chlorobenzoate]: the values for the IC50 (in data set [2]; at β-amyloid (1-42)) were 0.3 µM and 28.2 µM, respectively. Besides, the death rate result in the data set with ICR mice is reported as “no death”. As for `CC(C)(C)c1ccc(C(=O)OCCCCN2CCC(OCc3ccccc3)CC2)cc1` [Example 17, 4-[4-(benzyloxy)piperidino]butyl 4-(tert-butyl)benzoate], the IC50 in data set [2] was determined as 12.2 µM.
